# Measured values: ChEMBL document CHEMBL5356947, “Mitochondria-targeted biotin-conjugated BODIPYs for cancer imaging and therapy” (RSC Med Chem, 2023)
# What was measured:
# [1] = Fluorescence property of the compound assessed as fluorescence quantum yield in EtOH; format: physicochemical
# MDA-MB-231 [2] = assay: Photocytotoxicity against human MDA-MB-231 cells assessed as inhibition of cell growth incubated for 24 hrs by MTT assay; format: functional, cell-based; conditions: MDA-MB-231, 24 h
# MCF7 = assay: Photocytotoxicity against human MCF7 cells assessed as inhibition of cell growth incubated for 24 hrs by MTT assay; format: functional, cell-based; conditions: MCF7, 24 h
# HCT-116 = assay: Photocytotoxicity against human HCT-116 cells assessed as inhibition of cell growth incubated for 24 hrs by MTT assay; format: functional, cell-based; conditions: HCT-116, 24 h
# HT-29 = assay: Photocytotoxicity against human HT-29 cells assessed as inhibition of cell growth incubated for 24 hrs by MTT assay; format: functional, cell-based; conditions: HT-29, 24 h
# [3] = Photocytotoxicity against human MCF-10A cells assessed as inhibition of cell growth incubated for 24 hrs by MTT assay; format: toxicity, cell-based
# [4] = Drug localization in mitochondria of human MDA-MB-231 cells incubated for 1 hrs by Mitotracker deep red/Hoechst staining based confocal microscopic analysis; format: ADME; conditions: mda-mb-231, 1 h
# MDA-MB-231 [5] = assay: Induction of oxidative stress on human MDA-MB-231 cells assessed as increase in ROS population incubated for 24 hrs under dark condition by CM-H2DCFDA staining based analysis relative to control; format: functional
# MDA-MB-231 [6] = assay: Induction of oxidative stress on human MDA-MB-231 cells assessed as increase in ROS population at 30 nM preincubated with compound for 24 hrs followed by 540 nm light irradiation for 1 hrs by CM-H2DCFDA staining based analysis (reference value: 2.5%); format: functional; conditions: time 25 hrs
# MDA-MB-231 [7] = assay: Induction of oxidative stress on human MDA-MB-231 cells assessed as increase in ROS population at 60 nM preincubated with compound for 24 hrs followed by 540 nm light irradiation for 1 hrs by CM-H2DCFDA staining based analysis (reference value: 2.5%); format: functional; conditions: time 25 hrs
# MDA-MB-231 [8] = assay: Induction of apoptosis in human MDA-MB-231 cells assessed as early apoptotic cells at 30 nM incubated for 24 hrs under dark condition by Annexin V-FITC/PI staining based flow cytometric analysis relative to control; format: functional
# MDA-MB-231 [9] = assay: Induction of apoptosis in human MDA-MB-231 cells assessed as late apoptotic cells at 30 nM incubated for 24 hrs under dark condition by Annexin V-FITC/PI staining based flow cytometric analysis relative to control; format: functional
# MDA-MB-231 [10] = assay: Induction of apoptosis in human MDA-MB-231 cells assessed as necrotic cells at 30 nM incubated for 24 hrs under dark condition by Annexin V-FITC/PI staining based flow cytometric analysis relative to control; format: functional
# MDA-MB-231 [11] = assay: Induction of apoptosis in human MDA-MB-231 cells assessed as early apoptotic cells at 30 nM preincubated with compound for 24 hrs followed by 540 nm light irradiation for 1 hrs by Annexin V-FITC/PI staining based flow cytometric analysis (reference value: 19.2%); format: functional; conditions: time 25 hrs
# MDA-MB-231 [12] = assay: Induction of apoptosis in human MDA-MB-231 cells assessed as late apoptotic cells at 30 nM preincubated with compound for 24 hrs followed by 540 nm light irradiation for 1 hrs by Annexin V-FITC/PI staining based flow cytometric analysis (reference value: 17.1%); format: functional; conditions: time 25 hrs
# MDA-MB-231 [13] = assay: Induction of apoptosis in human MDA-MB-231 cells assessed as necrotic cells at 30 nM preincubated with compound for 24 hrs followed by 540 nm light irradiation for 1 hrs by Annexin V-FITC/PI staining based flow cytometric analysis (reference value: 2.7%); format: functional; conditions: time 25 hrs
# MDA-MB-231 [14] = assay: Induction of apoptosis in human MDA-MB-231 cells assessed as early apoptotic cells at 60 nM preincubated with compound for 24 hrs followed by 540 nm light irradiation for 1 hrs by Annexin V-FITC/PI staining based flow cytometric analysis (reference value: 19.2%); format: functional; conditions: time 25 hrs
# MDA-MB-231 [15] = assay: Induction of apoptosis in human MDA-MB-231 cells assessed as late apoptotic cells at 60 nM preincubated with compound for 24 hrs followed by 540 nm light irradiation for 1 hrs by Annexin V-FITC/PI staining based flow cytometric analysis (reference value: 17.1%); format: functional; conditions: time 25 hrs
# MDA-MB-231 [16] = assay: Induction of apoptosis in human MDA-MB-231 cells assessed as necrotic cells at 60 nM preincubated with compound for 24 hrs followed by 540 nm light irradiation for 1 hrs by Annexin V-FITC/PI staining based flow cytometric analysis (reference value: 2.7%); format: functional; conditions: time 25 hrs
# MDA-MB-231 [17] = assay: Cell cycle arrest in human MDA-MB-231 cells assessed as accumulation of cells at S phase incubated for 24 hrs by RNase A/PI staining based flow cytometric analysis relative to control; format: functional
# MDA-MB-231 [18] = assay: Cell cycle arrest in human MDA-MB-231 cells assessed as accumulation of cells at G1 phase incubated for 24 hrs by RNase A/PI staining based flow cytometric analysis relative to control; format: functional
# MDA-MB-231 [19] = assay: Cell cycle arrest in human MDA-MB-231 cells assessed as accumulation of cells at G2/M phase incubated for 24 hrs by RNase A/PI staining based flow cytometric analysis relative to control; format: functional
# MDA-MB-231 [20] = assay: Cell cycle arrest in human MDA-MB-231 cells assessed as accumulation of cells at G1 phase at 30 nM preincubated with compound for 15 mins followed by light irradiation and measured after 3 to 24 hrs by RNase A/PI staining based flow cytometric analysis (reference value: 65.7%); format: functional; conditions: time 195-1455 min
# MDA-MB-231 [21] = assay: Cell cycle arrest in human MDA-MB-231 cells assessed as accumulation of cells at S phase at 30 nM preincubated with compound for 15 mins followed by light irradiation and measured after 3 to 24 hrs by RNase A/PI staining based flow cytometric analysis (reference value: 16.4%); format: functional; conditions: time 195-1455 min
# MDA-MB-231 [22] = assay: Cell cycle arrest in human MDA-MB-231 cells assessed as accumulation of cells at G2/M phase at 30 nM preincubated with compound for 15 mins followed by light irradiation and measured after 3 to 24 hrs by RNase A/PI staining based flow cytometric analysis (reference value: 12.9%); format: functional; conditions: time 195-1455 min
# MDA-MB-231 [23] = assay: Cell cycle arrest in human MDA-MB-231 cells assessed as accumulation of cells at G1 phase at 60 nM preincubated with compound for 15 mins followed by light irradiation and measured after 3 to 24 hrs by RNase A/PI staining based flow cytometric analysis (reference value: 65.7%); format: functional; conditions: time 195-1455 min
# MDA-MB-231 [24] = assay: Cell cycle arrest in human MDA-MB-231 cells assessed as accumulation of cells at S phase at 60 nM preincubated with compound for 15 mins followed by light irradiation and measured after 3 to 24 hrs by RNase A/PI staining based flow cytometric analysis (reference value: 16.4%); format: functional; conditions: time 195-1455 min
# MDA-MB-231 [25] = assay: Cell cycle arrest in human MDA-MB-231 cells assessed as accumulation of cells at G2/M phase at 60 nM preincubated with compound for 15 mins followed by light irradiation and measured after 3 to 24 hrs by RNase A/PI staining based flow cytometric analysis (reference value: 12.9%); format: functional; conditions: time 195-1455 min
# [26] = Absorption property of the compound by UV-vis spectrophotometer; format: physicochemical
# [27] = Emission property of the compound by fluorescence spectrophotometer analysis; format: physicochemical
# [28] = Absorption property of the compound assessed as molar extinction co-effecient by UV-vis spectrophotometer; format: physicochemical
# [29] = Absorption property of the compound assessed as triplet quantum yield by UV-vis spectrophotometer; format: physicochemical
# [30] = Photosensitizing ability of the compound in MeOH assessed as singlet oxygen generation at 408 nm measured upto 120 sec by DPBF based assay; format: functional
# [31] = Absorption property of the compound assessed as decay lifetime; format: physicochemical
# MDA-MB-231 [32] = assay: Induction of oxidative stress on human MDA-MB-231 cells assessed as increase in ROS population at 15 nM preincubated with compound for 24 hrs followed by 540 nm light irradiation for 1 hrs by CM-H2DCFDA staining based analysis (reference value: 1.6%); format: functional; conditions: time 25 hrs
# MDA-MB-231 [33] = assay: Induction of oxidative stress on human MDA-MB-231 cells assessed as increase in ROS population at 30 nM preincubated with compound for 24 hrs followed by 540 nm light irradiation for 1 hrs by CM-H2DCFDA staining based analysis (reference value: 1.6%); format: functional; conditions: time 25 hrs
# MDA-MB-231 [34] = assay: Induction of apoptosis in human MDA-MB-231 cells assessed as early apoptotic cells at 15 nM incubated for 24 hrs under dark condition by Annexin V-FITC/PI staining based flow cytometric analysis relative to control; format: functional
# MDA-MB-231 [35] = assay: Induction of apoptosis in human MDA-MB-231 cells assessed as late apoptotic cells at 15 nM incubated for 24 hrs under dark condition by Annexin V-FITC/PI staining based flow cytometric analysis relative to control; format: functional
# MDA-MB-231 [36] = assay: Induction of apoptosis in human MDA-MB-231 cells assessed as necrotic cells at 15 nM incubated for 24 hrs under dark condition by Annexin V-FITC/PI staining based flow cytometric analysis relative to control; format: functional
# MDA-MB-231 [37] = assay: Induction of apoptosis in human MDA-MB-231 cells assessed as early apoptotic cells at 15 nM preincubated with compound for 24 hrs followed by 540 nm light irradiation for 1 hrs by Annexin V-FITC/PI staining based flow cytometric analysis (reference value: 19.2%); format: functional; conditions: time 25 hrs
# MDA-MB-231 [38] = assay: Induction of apoptosis in human MDA-MB-231 cells assessed as late apoptotic cells at 15 nM preincubated with compound for 24 hrs followed by 540 nm light irradiation for 1 hrs by Annexin V-FITC/PI staining based flow cytometric analysis (reference value: 17.1%); format: functional; conditions: time 25 hrs
# MDA-MB-231 [39] = assay: Induction of apoptosis in human MDA-MB-231 cells assessed as necrotic cells at 15 nM preincubated with compound for 24 hrs followed by 540 nm light irradiation for 1 hrs by Annexin V-FITC/PI staining based flow cytometric analysis (reference value: 2.7%); format: functional; conditions: time 25 hrs
# MDA-MB-231 [40] = assay: Cell cycle arrest in human MDA-MB-231 cells assessed as accumulation of cells at G2/M phase at 15 nM preincubated with compound for 15 mins followed by light irradiation and measured after 3 to 24 hrs by RNase A/PI staining based flow cytometric analysis (reference value: 12.9%); format: functional; conditions: time 195-1455 min
# MDA-MB-231 [41] = assay: Cell cycle arrest in human MDA-MB-231 cells assessed as accumulation of cells at S phase at 15 nM preincubated with compound for 15 mins followed by light irradiation and measured after 3 to 24 hrs by RNase A/PI staining based flow cytometric analysis (reference value: 16.4%); format: functional; conditions: time 195-1455 min
# MDA-MB-231 [42] = assay: Cell cycle arrest in human MDA-MB-231 cells assessed as accumulation of cells at G1 phase at 15 nM preincubated with compound for 15 mins followed by light irradiation and measured after 3 to 24 hrs by RNase A/PI staining based flow cytometric analysis (reference value: 65.7%); format: functional; conditions: time 195-1455 min
SMILES,Activity [1],IC50 (MDA-MB-231 [2]) [µM],IC50 (MCF7) [µM],IC50 (HCT-116) [µM],IC50 (HT-29) [µM],IC50 at 24 h [3] [µM],Drug uptake [4],Activity (MDA-MB-231 [5]) [%],Activity (MDA-MB-231 [11]) [%],Activity (MDA-MB-231 [12]) [%],Activity (MDA-MB-231 [13]) [%],Activity (MDA-MB-231 [17]) [%],Activity (MDA-MB-231 [18]) [%],Activity (MDA-MB-231 [19]) [%],Activity (MDA-MB-231 [20]) [%],Activity (MDA-MB-231 [21]) [%],Activity (MDA-MB-231 [22]) [%],Activity [26] [nm],Activity [27] [nm],Activity [28] [M⁻¹ cm⁻¹],also measured
CC/N=c1/cc2oc3cc(NCC)c(C)cc3c(-c3ccccc3C(=O)OCC)c-2cc1C.Cl,0.95,,,,,,,,,,,,,,,,,,,,
CC1=C(I)C(C)=[N+]2C1=C(c1ccc(OCc3cn(CCOCCOCCOCCOCCNC(=O)CCCCC4SCC5NC(=O)NC54)nn3)cc1)c1c(C)c(I)c(C)n1[B-]2(F)F (centres undefined),0.039,0.0522,0.0541,0.0749,0.0882,0.177,Active,5.9,10.5,11.2,12.1,18.1,63.3,13.3,63,14.6,19.2,533,549,91000,Activity (MDA-MB-231 [6]): 92.3%; Activity (MDA-MB-231 [7]): 92.4%; Activity (MDA-MB-231 [8]): 5.6%; Activity (MDA-MB-231 [9]): 11.5%; Activity (MDA-MB-231 [10]): 5.8%; Activity (MDA-MB-231 [14]): 4.5%; Activity (MDA-MB-231 [15]): 34.1%; Activity (MDA-MB-231 [16]): 40.1%; Activity (MDA-MB-231 [23]): 58.7%; Activity (MDA-MB-231 [24]): 15.5%; Activity (MDA-MB-231 [25]): 22%; Activity [29]: 0.44; Activity [30]: 0.34; Time [31]: 2.5 microsec
CC1=C(I)C(C)=[N+]2C1=C(c1ccc(OCc3cn(CCOCCOCCOCCNC(=O)CCCCC4SCC5NC(=O)NC54)nn3)cc1)c1c(C)c(I)c(C)n1[B-]2(F)F (centres undefined),0.032,0.0187,0.0218,0.0225,0.0275,0.196,Active,14.2,8.3,43,21.4,17.7,64.8,13.7,62.2,14.7,22.9,534,551,123000,Activity (MDA-MB-231 [32]): 41.6%; Activity (MDA-MB-231 [33]): 62.3%; Activity (MDA-MB-231 [34]): 13%; Activity (MDA-MB-231 [35]): 10.4%; Activity (MDA-MB-231 [36]): 3%; Activity (MDA-MB-231 [37]): 22.4%; Activity (MDA-MB-231 [38]): 30%; Activity (MDA-MB-231 [39]): 7.3%; Activity (MDA-MB-231 [40]): 21.8%; Activity (MDA-MB-231 [41]): 15.5%; Activity (MDA-MB-231 [42]): 59%; Activity [29]: 0.4; Activity [30]: 0.33; Time [31]: 3.6 microsec
